Measurements as given in the supplement of paper PMC10307832.

compound: C1CCC(CC1)N(CCNCCC2=C3C(=C(C=C2)O)NC(=O)CO3)C(=O)CCNCCC4=CC(=C(C=C4)Cl)Cl [AZ505] + CC1(C)CCC(c2ccc(Cl)cc2)=C(CN2CCN(c3ccc(C(=O)NS(=O)(=O)c4ccc(N[C@H](CCN5CCOCC5)CSc5ccccc5)c(S(=O)(=O)C(F)(F)F)c4)cc3)CC2)C1 [Navitoclax] (partner 0.5 µM); experiment: relative viability (nuclei count vs DMSO), 5 days (fraction); higher = more cells survive; conditions: first compound 0.08 µM
Procedure, shortened: (§1)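 Lung cancer cell lines in 1536-well plates got either a single drug or a fixed anchor-drug dose together with five library-drug doses (not always all listed) in √10 steps, by pin tool, on the day after seeding. Nuclei were counted after 5 days, and relative viability is the treated-to-vehicle ratio of nuclei counts. Values are medians of duplicate plates.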

In order of rising relative viability:
1. LC-2-ad  0.285
2. NCI-H1793  0.352
3. HCC-15  0.657
4. PC-3 [JPC-3]  0.76
5. EKVX  0.84
6. NCI-H1355  0.883
7. NCI-H1755  0.949
8. NCI-H2023  0.958
9. PC-14  0.999
10. NCI-H3122  1
11. NCI-H1975  1.02
12. NCI-H1437  1.03
13. NCI-H1944  1.03
14. RERF-LC-KJ  1.3

same assay, conditions: first compound 0.253 µM

In order of rising relative viability:
1. NCI-H1793  0.405
2. LC-2-ad  0.594
3. HCC-15  0.734
4. PC-3 [JPC-3]  0.817
5. NCI-H1355  0.864
6. RERF-LC-KJ  0.901
7. NCI-H2023  0.945
8. EKVX  0.961
9. NCI-H1975  0.99
10. NCI-H3122  1.02
11. NCI-H1944  1.03
12. NCI-H1755  1.06
13. PC-14  1.07
14. NCI-H1437  1.14

same assay, conditions: first compound 0.8 µM

In order of falling relative viability:
1. NCI-H1437  1.06
2. NCI-H1975  1.05
3. NCI-H3122  1.03
4. NCI-H1944  1.03
5. NCI-H2023  0.997
6. EKVX  0.986
7. PC-14  0.974
8. NCI-H1755  0.967
9. RERF-LC-KJ  0.916
10. NCI-H1355  0.908
11. PC-3 [JPC-3]  0.768
12. HCC-15  0.697
13. LC-2-ad  0.528
14. NCI-H1793  0.455

same assay, conditions: first compound 2.53 µM

In order of rising relative viability:
1. NCI-H1793  0.396
2. LC-2-ad  0.491
3. HCC-15  0.721
4. PC-3 [JPC-3]  0.84
5. RERF-LC-KJ  0.869
6. NCI-H1944  0.907
7. NCI-H1355  0.915
8. PC-14  0.95
9. EKVX  0.994
10. NCI-H1755  1.01
11. NCI-H3122  1.02
12. NCI-H1975  1.03
13. NCI-H1437  1.07
14. NCI-H2023  1.2

same assay, conditions: first compound 8 µM

In order of falling relative viability:
1. NCI-H1975  1.13
2. NCI-H1437  1.08
3. EKVX  1.03
4. NCI-H1944  1.02
5. NCI-H3122  1
6. PC-14  0.997
7. NCI-H1355  0.987
8. NCI-H1755  0.971
9. NCI-H2023  0.959
10. PC-3 [JPC-3]  0.802
11. RERF-LC-KJ  0.753
12. HCC-15  0.669
13. LC-2-ad  0.54
14. NCI-H1793  0.428

compound: Cn1c(=O)n(-c2ccc(C(C)(C)C#N)cc2)c2c3cc(-c4cnc5ccccc5c4)ccc3ncc21 [Dactolisib] + CC1(C)CCC(c2ccc(Cl)cc2)=C(CN2CCN(c3ccc(C(=O)NS(=O)(=O)c4ccc(N[C@H](CCN5CCOCC5)CSc5ccccc5)c(S(=O)(=O)C(F)(F)F)c4)cc3)CC2)C1 [Navitoclax] (partner 0.5 µM); experiment: as above; conditions: first compound 0.002 µM
Procedure, shortened: as §1

In order of rising relative viability:
1. NCI-H1793  0.372
2. LC-2-ad  0.453
3. HCC-15  0.767
4. PC-3 [JPC-3]  0.796
5. RERF-LC-KJ  0.875
6. NCI-H1355  0.959
7. EKVX  0.961
8. NCI-H3122  1.02
9. NCI-H1944  1.06
10. NCI-H1755  1.09
11. PC-14  1.09
12. NCI-H2023  1.11
13. NCI-H1975  1.14
14. NCI-H1437  1.2

same assay, conditions: first compound 0.006325 µM

In order of falling relative viability:
1. NCI-H1437  1.07
2. PC-14  1.06
3. NCI-H3122  1.05
4. RERF-LC-KJ  1.03
5. NCI-H1975  1.01
6. NCI-H1944  0.986
7. EKVX  0.98
8. NCI-H2023  0.95
9. NCI-H1755  0.943
10. NCI-H1355  0.836
11. PC-3 [JPC-3]  0.787
12. HCC-15  0.646
13. NCI-H1793  0.416

same assay, conditions: first compound 0.02 µM

In order of falling relative viability:
1. NCI-H1437  1.07
2. PC-14  1.06
3. NCI-H3122  0.993
4. NCI-H1944  0.933
5. NCI-H1755  0.928
6. PC-3 [JPC-3]  0.879
7. NCI-H1355  0.86
8. NCI-H2023  0.816
9. EKVX  0.815
10. RERF-LC-KJ  0.697
11. NCI-H1975  0.689
12. HCC-15  0.673
13. LC-2-ad  0.285
14. NCI-H1793  0.272

same assay, conditions: first compound 0.06325 µM

In order of rising relative viability:
1. NCI-H1793  0.184
2. LC-2-ad  0.189
3. NCI-H2023  0.204
4. PC-14  0.329
5. NCI-H1355  0.335
6. RERF-LC-KJ  0.455
7. HCC-15  0.475
8. NCI-H1755  0.519
9. NCI-H1944  0.526
10. NCI-H1975  0.55
11. PC-3 [JPC-3]  0.742
12. EKVX  0.782
13. NCI-H3122  0.809
14. NCI-H1437  0.967

same assay, conditions: first compound 0.2 µM

In order of rising relative viability:
1. NCI-H1793  0.159
2. LC-2-ad  0.159
3. NCI-H2023  0.201
4. NCI-H1355  0.234
5. HCC-15  0.322
6. EKVX  0.346
7. NCI-H1944  0.36
8. NCI-H1975  0.362
9. PC-14  0.432
10. NCI-H1755  0.467
11. NCI-H3122  0.491
12. PC-3 [JPC-3]  0.509
13. RERF-LC-KJ  0.609
14. NCI-H1437  0.837
